Earlier results in article PMC10733197, “Utilization of Rosuvastatin and Endogenous Biomarkers in Evaluating the Impact of Ritlecitinib on BCRP, OATP1B1, and OAT3 Transporter Activity” (Pharmaceutical Research, 2023).
pIC50: −log10 of the molar value. “And” between values parts separate entries of the source, which are not always exact repeats. Equal entries are not always repeated. Where two headings read alike, the source gives them in different places.

Experiments:
OATP1B1 [1] = molecular target: T1, OATP1B1 (Homo sapiens, UniProt Q9Y6L6); settings: CP-I 0.1 µM; 30-minute pre-incubation; HEK293; published data; ref 1 (Rodrigues AD 2023); cited from earlier work
T1 construct: expressed in transfected cells; host or cells: HEK293
T1 sequence (Q9Y6L6 1-691): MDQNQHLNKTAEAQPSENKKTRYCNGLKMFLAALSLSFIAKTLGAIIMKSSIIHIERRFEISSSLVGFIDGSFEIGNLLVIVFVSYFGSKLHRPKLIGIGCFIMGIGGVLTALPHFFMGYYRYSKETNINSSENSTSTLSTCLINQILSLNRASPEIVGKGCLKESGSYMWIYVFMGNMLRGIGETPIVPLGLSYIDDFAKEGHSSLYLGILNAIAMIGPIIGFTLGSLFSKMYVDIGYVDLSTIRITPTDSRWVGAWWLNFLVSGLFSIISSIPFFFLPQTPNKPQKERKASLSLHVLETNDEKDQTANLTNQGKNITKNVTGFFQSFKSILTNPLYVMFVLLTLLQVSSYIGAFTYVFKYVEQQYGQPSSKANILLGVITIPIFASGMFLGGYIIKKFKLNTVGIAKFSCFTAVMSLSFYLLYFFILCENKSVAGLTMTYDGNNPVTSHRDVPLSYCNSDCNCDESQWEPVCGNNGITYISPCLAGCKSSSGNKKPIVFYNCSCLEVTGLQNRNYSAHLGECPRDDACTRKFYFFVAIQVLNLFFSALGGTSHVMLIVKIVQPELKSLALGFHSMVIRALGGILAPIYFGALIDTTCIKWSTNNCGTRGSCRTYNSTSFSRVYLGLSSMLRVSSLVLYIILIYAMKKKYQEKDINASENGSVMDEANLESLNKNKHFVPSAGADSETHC

OATP1B1 [2] = settings: AUC ratio or single CP-I concentration ratio ± perpetrator, ref 1 (Rodrigues AD 2023), cited from earlier work
OATP1B3 = molecular target: T2, OATP1B3 (Homo sapiens, UniProt Q9NPD5); settings: CP-I 0.1 µM; 30-minute pre-incubation; HEK293; published data; ref 1 (Rodrigues AD 2023); cited from earlier work
T2 construct: expressed in transfected cells; host or cells: HEK293
T2 sequence (Q9NPD5 1-702): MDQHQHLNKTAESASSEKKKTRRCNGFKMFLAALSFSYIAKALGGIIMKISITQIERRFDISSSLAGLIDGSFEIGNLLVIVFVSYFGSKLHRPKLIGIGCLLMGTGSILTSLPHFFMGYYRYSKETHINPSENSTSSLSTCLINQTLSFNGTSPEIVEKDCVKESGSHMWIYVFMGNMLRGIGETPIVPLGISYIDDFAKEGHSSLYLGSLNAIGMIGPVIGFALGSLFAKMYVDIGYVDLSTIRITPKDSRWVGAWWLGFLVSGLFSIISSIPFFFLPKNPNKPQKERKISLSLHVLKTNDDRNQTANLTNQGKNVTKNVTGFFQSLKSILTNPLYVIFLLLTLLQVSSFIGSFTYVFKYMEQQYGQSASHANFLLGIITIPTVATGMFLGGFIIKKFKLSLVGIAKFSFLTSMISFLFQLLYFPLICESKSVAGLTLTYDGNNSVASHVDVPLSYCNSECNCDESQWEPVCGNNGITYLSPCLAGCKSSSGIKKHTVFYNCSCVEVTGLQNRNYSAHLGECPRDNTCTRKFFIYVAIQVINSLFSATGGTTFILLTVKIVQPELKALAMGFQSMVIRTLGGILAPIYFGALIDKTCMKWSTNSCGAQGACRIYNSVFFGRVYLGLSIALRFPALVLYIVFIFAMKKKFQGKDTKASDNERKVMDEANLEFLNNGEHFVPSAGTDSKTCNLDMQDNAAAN

[3] = cited from earlier work; for Imax,inlet,u: ka = 0.1 min^-1 assumed, ref 1 (Rodrigues AD 2023)

SMILES	pIC50 (OATP1B1 [1])	∆CP-I Observed (OATP1B1 [2]; inhibitor dose 600 mg)	pIC50 (OATP1B3)	Imax,inlet,u ([3]; inhibitor dose 600 mg)	∆CP-I Observed (OATP1B1 [2]; inhibitor dose 200 mg)	further results
CC/C(=C(/c1ccc(/C=C/C(=O)O)cc1)c1ccc2[nH]ncc2c1)c1ccc(F)cc1Cl [GDC-0810]	6.70	1.5	6.05	0.009 µM		
O=C(O)[C@H]1C2CCC(CC2)[C@@H]1Nc1nc(-c2c[nH]c3ncc(F)cc23)ncc1F [Pimodivir]	6.30	1.4	5.96	0.4 µM		
CC(=O)O[C@H]1C(=O)[C@@]2(C)[C@H]([C@H](OC(=O)c3ccccc3)[C@]3(O)C[C@H](OC(=O)[C@H](O)[C@@H](NC(=O)c4ccccc4)c4ccccc4)C(C)=C1C3(C)C)[C@]1(OC(C)=O)CO[C@@H]1C[C@@H]2O [Paclitaxel]			6.15		2.8	
COc1ccc2c(O[C@@H]3C[C@H]4C(=O)N[C@]5(C(=O)NS(=O)(=O)C6CC6)C[C@H]5/C=C\CCCCN(C)C(=O)[C@@H]4C3)cc(-c3nc(C(C)C)cs3)nc2c1C [Simeprevir]	6.00		6.30			∆CP-I Observed (OATP1B1 [2]; inhibitor dose 150 mg): 1.4; Imax,inlet,u ([3]; inhibitor dose 150 mg): 0.002 µM
CO[C@H]1/C=C/O[C@@]2(C)Oc3c(C)c(O)c4c(O)c(c(/C=N/N5CCN(C)CC5)c(O)c4c3C2=O)NC(=O)/C(C)=C\C=C\[C@H](C)[C@H](O)[C@@H](C)[C@@H](O)[C@@H](C)[C@H](OC(C)=O)[C@@H]1C [Rifampicin]		3.5 and 3.7 and 4 and 5.6	6.52	11.9 µM		∆CP-I Observed (OATP1B1 [2]; inhibitor dose 150 mg): 1.5; ∆CP-I Observed (OATP1B1 [2]; inhibitor dose 300 mg): 2.4 and 2.3; Imax,inlet,u ([3]; inhibitor dose 150 mg): 3 µM; Imax,inlet,u ([3]; inhibitor dose 300 mg): 5.9 µM
COc1ccc([C@@H]2Sc3ccccc3N(CCN(C)C)C(=O)[C@@H]2OC(C)=O)cc1 [Diltiazem]	4.00		3.76			
CCC(C)n1ncn(-c2ccc(N3CCN(c4ccc(OCC5COC(Cn6cncn6)(c6ccc(Cl)cc6Cl)O5)cc4)CC3)cc2)c1=O (centres unmarked) [Itraconazole]	4.70		4.70		0.9	Imax,inlet,u ([3]; inhibitor dose 200 mg): 0.3 µM
CCCN(CCC)S(=O)(=O)c1ccc(C(=O)O)cc1 [Probenecid]			3.93			∆CP-I Observed (OATP1B1 [2]; inhibitor dose 1,000 mg): 1.4; Cmax,u ([3]; inhibitor dose 1000 mg): 22 µM; Imax,inlet,u ([3]; inhibitor dose 1,000 mg): 56.6 µM
C[C@H]1CCN1c1nc(N2C[C@@H]3[C@@H](CC(=O)O)[C@@H]3C2)cc(C(F)(F)F)n1 [PF-06835919]	5.37	1.8	5.25	15.3 µM		∆CP-I Observed (OATP1B1 [2]; inhibitor dose 50 mg): 1.1; ∆CP-I Observed (OATP1B1 [2]; inhibitor dose 100 mg): 1.2; ∆CP-I Observed (OATP1B1 [2]; inhibitor dose 280 mg): 1.5; ∆CP-I Observed (OATP1B1 [2]; inhibitor dose 400 mg): 1.3; Imax,inlet,u ([3]; inhibitor dose 50 mg): 1.5 µM; Imax,inlet,u ([3]; inhibitor dose 100 mg): 2.5 µM; Imax,inlet,u ([3]; inhibitor dose 280 mg): 8.2 µM; Imax,inlet,u ([3]; inhibitor dose 400 mg): 10.3 µM
C[C@H]1CN(C2COC2)CCN1c1ccc(Nc2cc(-c3ccnc(N4CCn5c(cc6c5CC(C)(C)C6)C4=O)c3CO)cn(C)c2=O)nc1 [Fenebrutinib]	5.21		5.92		1	Imax,inlet,u ([3]; inhibitor dose 200 mg): 4.2 µM
